The values that follow come from ChEMBL document CHEMBL5724914, “Linking interpersonal differences in gut microbiota composition and drug biotransformation activity” (2024).

Series [1] is described as follows: The drug is tested on Z-010 corresponding to metagenome with ENA study accession number: PRJEB37062 and ENA sample accession number: ERS12561810 for biotransformation under anaerobic condition. The drug concentrations were measured over 9 timepoints collected between 0 and 24 hours of incubation by liquid-chromatography-coupled mass spectrometry (LC–MS). Particulars: 2 µM.

Series [2] in a line: The drug is tested on Z-016 corresponding to mouse gut metagenome with ENA study accession number: PRJEB37062 and ENA sample accession number: ERS12561815 for biotransformation under anaerobic condition. The drug concentrations were measured over 9 timepoints collected between 0 and 24 hours of incubation by liquid-chromatography-coupled mass spectrometry (LC–MS). Conditions: 2 µM.

The nature of series [3]: The drug is tested on WLS-170 corresponding to human gut metagenome with ENA study accession number: PRJEB37062 and ENA sample accession number: ERS12561762 for biotransformation under anaerobic condition. The drug concentrations were measured over 9 timepoints collected between 0 and 24 hours of incubation by liquid-chromatography-coupled mass spectrometry (LC–MS). Conditions: 2 µM.

For series [4] the following is noted: human gut metagenome, 24 h, 2 µM.
Series [5] is described as follows: The drug is tested on Z-013 corresponding to rabbit gut metagenome with ENA study accession number: PRJEB37062 and ENA sample accession number: ERS12561813 for biotransformation under anaerobic condition. The drug concentrations were measured over 9 timepoints collected between 0 and 24 hours of incubation by liquid-chromatography-coupled mass spectrometry (LC–MS). Particulars: 2 µM.

Series [6] can be described thus: The drug is tested on WLS-082 corresponding to human gut metagenome with ENA study accession number: PRJEB37062 and ENA sample accession number: ERS12561751 for biotransformation under anaerobic condition. The drug concentrations were measured over 9 timepoints collected between 0 and 24 hours of incubation by liquid-chromatography-coupled mass spectrometry (LC–MS). Conditions: 2 µM.

The conditions of series [7]: human gut metagenome, 24 h, 2 µM. The source holds these as a separate data set.
Series [8] in a line: The drug is tested on Z-030 corresponding to mouse gut metagenome with ENA study accession number: PRJEB37062 and ENA sample accession number: ERS12561829 for biotransformation under anaerobic condition. The drug concentrations were measured over 9 timepoints collected between 0 and 24 hours of incubation by liquid-chromatography-coupled mass spectrometry (LC–MS). Conditions: 2 µM.

Series [9] is described as follows: The drug is tested on Z-021 corresponding to metagenome with ENA study accession number: PRJEB37062 and ENA sample accession number: ERS12561820 for biotransformation under anaerobic condition. The drug concentrations were measured over 9 timepoints collected between 0 and 24 hours of incubation by liquid-chromatography-coupled mass spectrometry (LC–MS). Particulars: 2 µM.

The conditions of series [10]: human gut metagenome, 24 h, 2 µM. This is another data set of the same source.
The nature of series [11]: The drug is tested on WLS-240 corresponding to human gut metagenome with ENA study accession number: PRJEB37062 and ENA sample accession number: ERS12561773 for biotransformation under anaerobic condition. The drug concentrations were measured over 9 timepoints collected between 0 and 24 hours of incubation by liquid-chromatography-coupled mass spectrometry (LC–MS). Particulars: 2 µM.

For series [12] the following is noted: human gut metagenome, 24 h, 2 µM. The source holds these as a separate data set.
The nature of series [13]: The drug is tested on Z-006 corresponding to mouse gut metagenome with ENA study accession number: PRJEB37062 and ENA sample accession number: ERS12561806 for biotransformation under anaerobic condition. The drug concentrations were measured over 9 timepoints collected between 0 and 24 hours of incubation by liquid-chromatography-coupled mass spectrometry (LC–MS). Particulars: 2 µM.

For series [14] the following is noted: human gut metagenome, 24 h, 2 µM. The source holds these as a separate data set.
Series [15] in a line: The drug is tested on Z-029 corresponding to rat gut metagenome with ENA study accession number: PRJEB37062 and ENA sample accession number: ERS12561828 for biotransformation under anaerobic condition. The drug concentrations were measured over 9 timepoints collected between 0 and 24 hours of incubation by liquid-chromatography-coupled mass spectrometry (LC–MS). Conditions: 2 µM.

The nature of series [16]: The drug is tested on Z-004 corresponding to metagenome with ENA study accession number: PRJEB37062 and ENA sample accession number: ERS12561804 for biotransformation under anaerobic condition. The drug concentrations were measured over 9 timepoints collected between 0 and 24 hours of incubation by liquid-chromatography-coupled mass spectrometry (LC–MS). Particulars: 2 µM.

The conditions of series [17]: human gut metagenome, 24 h, 2 µM. This is another data set of the same source.
For series [18] the following is noted: human gut metagenome, 24 h, 2 µM. This is another data set of the same source.
The conditions of series [19]: human gut metagenome, 24 h, 2 µM. This is another data set of the same source.
The conditions of series [20]: human gut metagenome, 24 h, 2 µM. This is another data set of the same source.
Further: call rule not given here.

For the molecule `CCN(CC)CCNC(C(=O)OCCC(C)C)c1ccccc1.Cl.Cl` (stereo not given), the “Bacterial Biotransformation” value is “Compound metabolized” in [1]; “Compound NOT metabolized” in series [2]; “Compound metabolized” in series [3]; “Compound metabolized” in [4]; “Compound NOT metabolized” in [5]; “Compound metabolized” in series [6]. In addition, the “Bacterial Biotransformation” value in [7] is “Compound metabolized”; in series [8], “Compound NOT metabolized”; in series [9], “Compound metabolized”; in series [10], “Compound NOT metabolized”; in series [11] it was “Compound metabolized”; in series [12] it was “Compound metabolized”. In addition, the “Bacterial Biotransformation” value in [13] was “Compound NOT metabolized”; in series [14], “Compound metabolized”; in series [15] it was “Compound NOT metabolized”; in [16], “Compound NOT metabolized”; in series [17] it was “Compound metabolized”; in series [18] it was “Compound metabolized”. Also, the “Bacterial Biotransformation” value in [19] is on record as “Compound NOT metabolized”; in [20], “Compound metabolized”.

Consider `CCCC(=O)Nc1ccc(OCC(O)CNC(C)C)c(C(C)=O)c1` (stereo not given) [ACEBUTOLOL], for which the “Bacterial Biotransformation” value in series [1] was “Compound NOT metabolized”; in [2], “Compound NOT metabolized”; in series [3] it was “Compound metabolized”; in series [4], “Compound metabolized”; in series [5] it was “Compound NOT metabolized”; in series [6], “Compound NOT metabolized”. The “Bacterial Biotransformation” value in [7] is on record as “Compound NOT metabolized”; in series [8], “Compound NOT metabolized”; in series [9], “Compound metabolized”; in series [10], “Compound NOT metabolized”; in series [11], “Compound metabolized”; in series [12], “Compound metabolized”. Moreover, the “Bacterial Biotransformation” value in [13] is given as “Compound NOT metabolized”; in series [14], “Compound metabolized”; in series [15], “Compound NOT metabolized”; in [16] it was “Compound NOT metabolized”; in series [17] it was “Compound metabolized”; in series [18], “Compound metabolized”. Also, the “Bacterial Biotransformation” value in series [19] and in series [20] was “Compound metabolized” each time.

With `C=CCc1ccccc1OCC(O)CNC(C)C` (stereo not given) [ALPRENOLOL], the “Bacterial Biotransformation” value in series [1] is recorded as “Compound NOT metabolized”; in [2] it was “Compound NOT metabolized”; in series [3], “Compound metabolized”; in series [4] it was “Compound metabolized”; in [5], “Compound NOT metabolized”; in series [6], “Compound NOT metabolized”. Besides, the “Bacterial Biotransformation” value in series [7] is “Compound metabolized”; in series [8] it was “Compound NOT metabolized”; in [9] it was “Compound metabolized”; in series [10], “Compound NOT metabolized”; in series [11], “Compound metabolized”; in [12], “Compound NOT metabolized”. The “Bacterial Biotransformation” value in [13] is given as “Compound NOT metabolized”; in series [14], “Compound NOT metabolized”; in series [15], “Compound NOT metabolized”; in series [16] it was “Compound NOT metabolized”; in series [17] it was “Compound metabolized”; in series [18], “Compound metabolized”. For the same molecule, the “Bacterial Biotransformation” value in series [19] and in [20] was “Compound NOT metabolized” throughout.

In the case of `CC(C)c1c(C(=O)Nc2ccccc2)c(-c2ccccc2)c(-c2ccc(F)cc2)n1CC[C@@H](O)C[C@@H](O)CC(=O)O` [ATORVASTATIN], the “Bacterial Biotransformation” value in series [1] was “Compound metabolized”; in [2], “Compound NOT metabolized”; in [3] it was “Compound metabolized”; in series [4], “Compound metabolized”; in [5] it was “Compound NOT metabolized”; in series [6], “Compound metabolized”. Moreover, the “Bacterial Biotransformation” value in series [7] is reported as “Compound NOT metabolized”; in [8], “Compound NOT metabolized”; in [9] it was “Compound NOT metabolized”; in [10], “Compound NOT metabolized”; in [11], “Compound metabolized”; in [12] it was “Compound NOT metabolized”. The “Bacterial Biotransformation” value in series [13] was “Compound NOT metabolized”; in [14] it was “Compound NOT metabolized”; in series [15], “Compound NOT metabolized”; in [16] it was “Compound NOT metabolized”; in series [17], “Compound NOT metabolized”; in series [18], “Compound metabolized”. The “Bacterial Biotransformation” value in series [19] and in series [20] was “Compound metabolized” in each case.

Take `CCOC(=O)[C@H](CCc1ccccc1)N[C@H]1CCc2ccccc2N(CC(=O)O)C1=O` [BENAZEPRIL]: the “Bacterial Biotransformation” value in series [1] is “Compound metabolized”; in [2] it was “Compound metabolized”; in [3] it was “Compound metabolized”; in [4], “Compound metabolized”; in [5] it was “Compound NOT metabolized”; in series [6], “Compound metabolized”. For the same molecule, the “Bacterial Biotransformation” value in [7] is “Compound metabolized”; in series [8] it was “Compound metabolized”; in series [9] it was “Compound metabolized”; in series [10], “Compound NOT metabolized”; in [11] it was “Compound metabolized”; in series [12] it was “Compound metabolized”. The “Bacterial Biotransformation” value in series [13], in series [14], in series [15], in series [16], in series [17] and in series [18] was “Compound metabolized” each time. The “Bacterial Biotransformation” value in [19] was “Compound NOT metabolized”; in [20], “Compound metabolized”.
